The test system of assay [1] is HCT-116. The experiment in a line: Antiproliferative activity against human HCT116 cells after 72 hrs by phosphatase assay. The assay is classed as functional, cell-based. Particulars: HCT-116, 72 h.
Assay [2] in a line: Cytotoxicity against human HCT116/VM46 cells assessed as reduction in cell viability after 72 hrs by phosphatase assay. The assay is classed as cell-based. Particulars: HCT-116/VM46, 72 h.
For assay [3], the system named is L1210. The assay can be described thus: Antiproliferative activity against mouse L1210 cells after 72 hrs by phosphatase assay. The assay is classed as functional, cell-based. The conditions noted are these: L1210, 72 h.

As a reminder, the IC50 is the concentration at which inhibition is half-maximal. With `CCc1ccc(C(=O)N[C@@]2(CC)C[C@H]3CN(CCc4c([nH]c5ccccc45)[C@@](C(=O)OC)(c4cc5c(cc4OC)N(C)[C@H]4[C@@](O)(C(=O)OC)[C@H](OC(C)=O)[C@]6(CC)C=CCN7CC[C@]54[C@@H]76)C3)C2)cc1`, the IC50 in assay [1] was 0.7 nM; in assay [2], 3.4 nM; in assay [3] it was 0.65 nM.

`CC[C@]1(NC(=O)c2ccon2)C[C@H]2CN(CCc3c([nH]c4ccccc34)[C@@](C(=O)OC)(c3cc4c(cc3OC)N(C)[C@H]3[C@@](O)(C(=O)OC)[C@H](OC(C)=O)[C@]5(CC)C=CCN6CC[C@]43[C@@H]65)C2)C1`: the values for the half-inhibitory concentration (IC50) in assay [1], in assay [2] and in assay [3] were 7 nM, 90 nM and 4.5 nM, respectively.

Turning to `CC[C@]1(NS(=O)(=O)c2cccc3c(N(C)C)cccc23)C[C@H]2CN(CCc3c([nH]c4ccccc34)[C@@](C(=O)OC)(c3cc4c(cc3OC)N(C)[C@H]3[C@@](O)(C(=O)OC)[C@H](OC(C)=O)[C@]5(CC)C=CCN6CC[C@]43[C@@H]65)C2)C1`, the figures for the IC50 in assay [1], in assay [2] and in assay [3] were 30 nM, 60 nM and 30 nM, respectively.

Consider `CC[C@]1(NC(=O)c2ccoc2)C[C@H]2CN(CCc3c([nH]c4ccccc34)[C@@](C(=O)OC)(c3cc4c(cc3OC)N(C)[C@H]3[C@@](O)(C(=O)OC)[C@H](OC(C)=O)[C@]5(CC)C=CCN6CC[C@]43[C@@H]65)C2)C1`, for which the IC50 in assay [1] was 0.6 nM; in assay [2], 6.3 nM; in assay [3], 0.7 nM.

On to `CC[C@]1(NC(=O)C2CCC2)C[C@H]2CN(CCc3c([nH]c4ccccc34)[C@@](C(=O)OC)(c3cc4c(cc3OC)N(C)[C@H]3[C@@](O)(C(=O)OC)[C@H](OC(C)=O)[C@]5(CC)C=CCN6CC[C@]43[C@@H]65)C2)C1`, for which the IC50 stood at 5.4 nM in assay [1], 85 nM in assay [2] and 5.4 nM in assay [3].

In the case of `CC[C@]1(NC(=O)c2ccc3cccc(OC)c3c2)C[C@H]2CN(CCc3c([nH]c4ccccc34)[C@@](C(=O)OC)(c3cc4c(cc3OC)N(C)[C@H]3[C@@](O)(C(=O)OC)[C@H](OC(C)=O)[C@]5(CC)C=CCN6CC[C@]43[C@@H]65)C2)C1`, the results for the IC50 in assay [1], in assay [2] and in assay [3] were 13 nM, 70 nM and 10 nM, respectively.

As for `CC[C@]1(NC(=O)/C=C/c2ccncc2)C[C@H]2CN(CCc3c([nH]c4ccccc34)[C@@](C(=O)OC)(c3cc4c(cc3OC)N(C)[C@H]3[C@@](O)(C(=O)OC)[C@H](OC(C)=O)[C@]5(CC)C=CCN6CC[C@]43[C@@H]65)C2)C1`, the IC50 in assay [1] came out at 0.7 nM; in assay [2], 50 nM; in assay [3], 0.6 nM.

With `CC[C@]1(NC(=O)Cc2ccccc2)C[C@H]2CN(CCc3c([nH]c4ccccc34)[C@@](C(=O)OC)(c3cc4c(cc3OC)N(C)[C@H]3[C@@](O)(C(=O)OC)[C@H](OC(C)=O)[C@]5(CC)C=CCN6CC[C@]43[C@@H]65)C2)C1`, the values for the half-maximal inhibitory concentration (IC50) in assay [1], in assay [2] and in assay [3] were 55 nM, 550 nM and 55 nM, respectively.

For `CC[C@]1(NS(=O)(=O)c2ccccc2[N+](=O)[O-])C[C@H]2CN(CCc3c([nH]c4ccccc34)[C@@](C(=O)OC)(c3cc4c(cc3OC)N(C)[C@H]3[C@@](O)(C(=O)OC)[C@H](OC(C)=O)[C@]5(CC)C=CCN6CC[C@]43[C@@H]65)C2)C1`, the IC50 is 420 nM in assay [1], 440 nM in assay [2] and 360 nM in assay [3].

On to `CC[C@]1(NC(=O)c2ccc(NC(C)=O)cc2)C[C@H]2CN(CCc3c([nH]c4ccccc34)[C@@](C(=O)OC)(c3cc4c(cc3OC)N(C)[C@H]3[C@@](O)(C(=O)OC)[C@H](OC(C)=O)[C@]5(CC)C=CCN6CC[C@]43[C@@H]65)C2)C1`, for which the IC50 came to 0.8 nM in assay [1], 55 nM in assay [2] and 1.6 nM in assay [3].

As to `CC[C@]1(NC(=O)c2cncn2C)C[C@H]2CN(CCc3c([nH]c4ccccc34)[C@@](C(=O)OC)(c3cc4c(cc3OC)N(C)[C@H]3[C@@](O)(C(=O)OC)[C@H](OC(C)=O)[C@]5(CC)C=CCN6CC[C@]43[C@@H]65)C2)C1`, the IC50 in assay [1] amounted to 2.2 nM; in assay [2] it was 80 nM; in assay [3] it was 4 nM.

Consider `CC[C@]1(NC(=O)c2ccc(Cl)cc2)C[C@H]2CN(CCc3c([nH]c4ccccc34)[C@@](C(=O)OC)(c3cc4c(cc3OC)N(C)[C@H]3[C@@](O)(C(=O)OC)[C@H](OC(C)=O)[C@]5(CC)C=CCN6CC[C@]43[C@@H]65)C2)C1`, for which the concentration for half-maximal inhibition (IC50) in assay [1] is 3.2 nM; in assay [2], 50 nM; in assay [3] it was 3.1 nM.

Consider `CC[C@]1(NC(=O)c2ccc(C#N)c(C)c2)C[C@H]2CN(CCc3c([nH]c4ccccc34)[C@@](C(=O)OC)(c3cc4c(cc3OC)N(C)[C@H]3[C@@](O)(C(=O)OC)[C@H](OC(C)=O)[C@]5(CC)C=CCN6CC[C@]43[C@@H]65)C2)C1`, for which the IC50 in assay [1] was 6.2 nM; in assay [2], 65 nM; in assay [3], 4.8 nM.

As for `CC[C@]1(NC(=O)c2cccc(F)c2)C[C@H]2CN(CCc3c([nH]c4ccccc34)[C@@](C(=O)OC)(c3cc4c(cc3OC)N(C)[C@H]3[C@@](O)(C(=O)OC)[C@H](OC(C)=O)[C@]5(CC)C=CCN6CC[C@]43[C@@H]65)C2)C1`, the results for the IC50 in assay [1], in assay [2] and in assay [3] were 5.3 nM, 25 nM and 5.7 nM, respectively.

With `CC[C@]1(NC(=O)c2ccc(OC)cc2F)C[C@H]2CN(CCc3c([nH]c4ccccc34)[C@@](C(=O)OC)(c3cc4c(cc3OC)N(C)[C@H]3[C@@](O)(C(=O)OC)[C@H](OC(C)=O)[C@]5(CC)C=CCN6CC[C@]43[C@@H]65)C2)C1`, the half-maximal inhibitory concentration (IC50) in assay [1] is 6.4 nM; in assay [2], 70 nM; in assay [3], 6.2 nM.

Turning to `CC[C@]1(NC(=O)c2ccc(C)c(NC(C)=O)c2)C[C@H]2CN(CCc3c([nH]c4ccccc34)[C@@](C(=O)OC)(c3cc4c(cc3OC)N(C)[C@H]3[C@@](O)(C(=O)OC)[C@H](OC(C)=O)[C@]5(CC)C=CCN6CC[C@]43[C@@H]65)C2)C1`, the figures for the half-inhibitory concentration (IC50) in assay [1], in assay [2] and in assay [3] were 4.3 nM, 330 nM and 5.4 nM, respectively.

As for `CC[C@]1(NC(=O)c2cccc(C(F)(F)F)c2)C[C@H]2CN(CCc3c([nH]c4ccccc34)[C@@](C(=O)OC)(c3cc4c(cc3OC)N(C)[C@H]3[C@@](O)(C(=O)OC)[C@H](OC(C)=O)[C@]5(CC)C=CCN6CC[C@]43[C@@H]65)C2)C1`, the IC50 in assay [1] was determined as 6.4 nM; in assay [2], 40 nM; in assay [3], 6.2 nM.

Turning to `CC[C@]1(NC(=O)c2cccc(Cl)c2)C[C@H]2CN(CCc3c([nH]c4ccccc34)[C@@](C(=O)OC)(c3cc4c(cc3OC)N(C)[C@H]3[C@@](O)(C(=O)OC)[C@H](OC(C)=O)[C@]5(CC)C=CCN6CC[C@]43[C@@H]65)C2)C1`, the IC50 in assay [1] is 2.7 nM; in assay [2], 20 nM; in assay [3], 4.2 nM.

As to `CC[C@]1(NC(=O)c2cccc(C(C)C)c2)C[C@H]2CN(CCc3c([nH]c4ccccc34)[C@@](C(=O)OC)(c3cc4c(cc3OC)N(C)[C@H]3[C@@](O)(C(=O)OC)[C@H](OC(C)=O)[C@]5(CC)C=CCN6CC[C@]43[C@@H]65)C2)C1`, the IC50 is 8.7 nM in assay [1], 65 nM in assay [2] and 7.5 nM in assay [3].

For the compound `CC[C@]1(NC(=O)c2ccc3c(c2)CCCCC3)C[C@H]2CN(CCc3c([nH]c4ccccc34)[C@@](C(=O)OC)(c3cc4c(cc3OC)N(C)[C@H]3[C@@](O)(C(=O)OC)[C@H](OC(C)=O)[C@]5(CC)C=CCN6CC[C@]43[C@@H]65)C2)C1`, the IC50 was determined as 4.8 nM in assay [1], 35 nM in assay [2] and 6.1 nM in assay [3].

`CC[C@]1(NC(=O)c2cc(C)c(OC)c(C)c2)C[C@H]2CN(CCc3c([nH]c4ccccc34)[C@@](C(=O)OC)(c3cc4c(cc3OC)N(C)[C@H]3[C@@](O)(C(=O)OC)[C@H](OC(C)=O)[C@]5(CC)C=CCN6CC[C@]43[C@@H]65)C2)C1`: the 50% inhibitory concentration (IC50) in assay [1] was determined as 0.65 nM; in assay [2] it was 3.5 nM; in assay [3], 0.5 nM.

Consider `CC[C@]1(NC(=O)c2ccc(NS(C)(=O)=O)cc2)C[C@H]2CN(CCc3c([nH]c4ccccc34)[C@@](C(=O)OC)(c3cc4c(cc3OC)N(C)[C@H]3[C@@](O)(C(=O)OC)[C@H](OC(C)=O)[C@]5(CC)C=CCN6CC[C@]43[C@@H]65)C2)C1`, for which the half-maximal inhibitory concentration (IC50) worked out at 0.3 nM in assay [1], 50 nM in assay [2] and 0.4 nM in assay [3].

Regarding `CC[C@]1(NC(=O)c2ccc(C)c(NC(=O)c3ccccc3)c2)C[C@H]2CN(CCc3c([nH]c4ccccc34)[C@@](C(=O)OC)(c3cc4c(cc3OC)N(C)[C@H]3[C@@](O)(C(=O)OC)[C@H](OC(C)=O)[C@]5(CC)C=CCN6CC[C@]43[C@@H]65)C2)C1`, the IC50 turned out to be 7.6 nM in assay [1], 240 nM in assay [2] and 30 nM in assay [3].

`CC[C@]1(NC(=O)c2ccncc2)C[C@H]2CN(CCc3c([nH]c4ccccc34)[C@@](C(=O)OC)(c3cc4c(cc3OC)N(C)[C@H]3[C@@](O)(C(=O)OC)[C@H](OC(C)=O)[C@]5(CC)C=CCN6CC[C@]43[C@@H]65)C2)C1`: the figures for the IC50 in assay [1], in assay [2] and in assay [3] were 0.4 nM, 55 nM and 0.4 nM, respectively.

Turning to `CCC(C)c1ccc(C(=O)N[C@@]2(CC)C[C@H]3CN(CCc4c([nH]c5ccccc45)[C@@](C(=O)OC)(c4cc5c(cc4OC)N(C)[C@H]4[C@@](O)(C(=O)OC)[C@H](OC(C)=O)[C@]6(CC)C=CCN7CC[C@]54[C@@H]76)C3)C2)cc1` (stereo partly drawn), the results for the IC50 in assay [1], in assay [2] and in assay [3] were 15 nM, 65 nM and 25 nM, respectively.

Turning to `CC[C@]1(NC(=O)c2cc(Cl)c(OC)c(Cl)c2)C[C@H]2CN(CCc3c([nH]c4ccccc34)[C@@](C(=O)OC)(c3cc4c(cc3OC)N(C)[C@H]3[C@@](O)(C(=O)OC)[C@H](OC(C)=O)[C@]5(CC)C=CCN6CC[C@]43[C@@H]65)C2)C1`, the IC50 in assay [1] is 4.2 nM; in assay [2] it was 25 nM; in assay [3] it was 3.1 nM.

These data come from ChEMBL document CHEMBL4017512 (J Med Chem, 2017).
